These results are taken from patent US6559280B2, “Controlling protein levels in eucaryotic organisms” (Proteinix, Inc., priority 1999, dated 2003).

The test system of test [1] is [125I]-lysozyme degradation in the reticulocyte lysate. Briefly: inhibition of [125I]-lysozyme degradation in reticulocyte lysate by ubiquitination recognition elements. It is filed as biochemical, rabbit. Particulars: for lysozyme degradation, result at the 2 hour time point: no treatment 12,475 cpm. On the procedure:
Proteins were labeled by Lofstrand Laboratories Ltd. (Gaithersburg, Md.) Labeled to […] by oxidation of Na^125I using an iodobead chloramine-T procedure. The ubiquitin-dependent protein degradation assay was preformed by the addition of 70 μL of rabbit reticulocyte lysate and 5 uL of 0.06 μCi/μL ^25I-labeled protein to […] of reaction buffer containing 40 mM Tris pH 7.6, 2 mM DTT, 5 mM MgCl2, 0.5 mM ATP, 35 μg creatine phosphokinase (Sigma) and 10 mM phosphocreatine. The reaction were run at 37 C. in a heating block, and at time points 30 μL of the reaction was transferred to 50 μl of cold 100 mg/mL BSA and protein was precipitated by the addition of 420 μL of 23% TCA followed by 15 min on ice. The precipitated samples were microfuged for 2 min at 5000 rpm and 300 μL of supernatant was then counted for TCA-soluble ^125I on a gamma counter (Hidex).
In order to determine if a given molecule or molecular element is potentially valuable as a ubiquitination recognition element the assay described above is run with [^125I]-lysozyme or other labeled protein substrates in the presence of potential ubiquitination recognition elements.
The results at the 2 hour time point were 12,475 cpm for no treatment, 6,486 cpm for the 2 mM Arg-εAhx-Cys treatment and 3,592 cpm for the 5 mM Phe-εAhx-Cys treatment.

The subject of test [2] is E2 ubiquitination reaction. Particulars: patent application GB 2,320,570; cited from earlier work.

Non-standard residues stand in square brackets, D forms with d. No end group written: not given here. Ahx = NCCCCCC(=O)O

As to “Phe-εAhx-Cys (Phe-[Ahx]-Cys) [ubiquitination recognition element, Type II recognition with caproic acid linker and C-terminal Cys]”, the “effect on lysozyme degradation in the reticulocyte lysate” value in test [1] is on record as “inhibition of the lysozyme degradation”. The “lysozyme degradation, result at the 2 hour time point” value in test [1] (5 mM treatment) is 3,592 cpm.
Take “Arg-εAhx-Cys (Arg-[Ahx]-Cys) [ubiquitination recognition element, Type I recognition with caproic acid linker and C-terminal Cys]”: in test [1], the “effect on lysozyme degradation in the reticulocyte lysate” value is on record as “inhibition of the lysozyme degradation”. In addition, the “lysozyme degradation, result at the 2 hour time point” value in test [1] (2 mM treatment) was 6,486 cpm.
Take `O=S(=O)(O)c1cc(Nc2nc(Cl)nc(Nc3ccc(Cl)c(Nc4nc(Cl)nc(Nc5cc(S(=O)(=O)O)cc6cc(S(=O)(=O)O)c(N=Nc7ccc8ccccc8c7S(=O)(=O)O)c(O)c56)n4)c3)n2)c2c(O)c(N=Nc3ccc4ccccc4c3S(=O)(=O)O)c(S(=O)(=O)O)cc2c1` [compound Z, 1-chloro-2,4-bis{4-[2-chloro-6-(5-(2,7-disulfo-4-hydroxy-3-(2-(1-sulfonaphthyl)azo)naphthyl)amino)-1,3,5-triazinyl]amino}benzene]: the “inhibition of an E2 ubiquitination reaction” value in test [2] is recorded as “inhibited an E2 ubiquitination reaction”.
